Data from patent EP3685668B1, “COMPOSITION COMPRISING ACIBENZOLAR-S-METHYL AS EFFECTIVE INGREDIENT FOR CONTROLLING BURSAPHELENCHUS XYLOPHILUS DISEASE AND METHOD FOR CONTROLLING BURSAPHELENCHUS XYLOPHILUS USING SAME” (Industry Foundation of Chonnam National University, priority 2017, dated 2019).

Columns and labels:
Test in all cases: qRT-PCR expression of induced resistance gene in pine tree callus
Type in all cases: cell-based
PR_5 family = conditions: for Expression of induced resistance gene, PR_5 family: 24 hours
Method: (§1) For in vitro analysis of induced resistance, the expression of PR genes and other plant defense-related genes was determined, which are evolved in various defense mechanisms including induced resistance. The primers of sixteen induced resistance-related genes of pine tree used in this invention were listed in the below and elongation factor_1 alpha were used as a reference gene. [Table 4] The primer list of defense resistance-related genes
(§2) After the treatment with 200 µg / mℓ of candidates of the selected induced resistance material, expression of the induced resistance-related gene in pine callus was determined by qRT-PCR using the primer pairs of defense resistance-related genes in Table 4. As a candidate group of an induced resistance material in pine tree, acibenzolar-S-methyl (ASM), TDL (Tiadinil), ITL (Isotianil), PBZ (Probenzole), AZO (Azoxystrobin), VMA (Validamycin A), MeJA (Methyl jasmonate), BABA (DL-3-aminobutyric acid), 2,3-BDO (2,3-Butanediol), GABA (r-Aminobutyric acid), glucan (Glucan), ER (Ergosterol), and AZA (Azelaic acid) were used. For the in vitro analysis of the expression of induced resistance gene in pine callus, the selected induced resistance materials were applied with 500 µℓ of LM liquid medium on a surface of pine tree callus (100 mg) in 12-well microplate to give final concentration of 200 µg/mℓ. Then, the callus surface was sufficiently reacted for 24 hours with the candidate of pine tree induced resistance material by shaking at 50 rpm in a 25 °C shaking incubator under dark condition. RNAs were extracted from the callus after completion of the reaction with an induced resistance material, followed by synthesis of cDNAs. Then, by carrying out qRT-PCR, the expression of induced resistance genes was determined. [Table 5] Expression of induced resistance gene in pine tree callus by TDL, PBZ, ASM, ITL, AZO, VMA, glucan, and AZA
(§3) Based on the results of assay using young plants and gene expression by selected induce resistance materials, it seemed that acibenzolar-S-methyl had the most excellent effect. Thus, the following tests were carried out using acibenzolar-S-methyl only. Expression of the induced resistance genes at different culture time after the chemical treatment was examined. For the in vitro assay, LM medium containing pine tree callus was treated with acibenzolar-S-methyl at concentration of 200 µg / mℓ, followed by reaction for 1 day, 7 days, or 14 days in a 25°C shaking incubator under dark condition. RNAs were extracted from the callus after the reaction followed by synthesis of cDNAs. Then, by carrying out qRT-PCR, the expression of the induced resistance genes was determined. Depending on reaction time after the treatment, i.e., after 1 day, 7 days, or 14 days, the expression of the obtained induced resistance genes was examined. As a result of the in vitro callus assay depending on reaction time after the treatment with acibenzolar-S-methyl, the expression of the induced resistance-related genes is the highest at 1 day after the treatment with acibenzolar-S-methyl and gradually diminished over time, as it is shown in Table 7. In this regard, it is contemplated that the expression of genes acquired by acibenzolar-S-methyl is not maintained in highly expressed state until the pathogen invasion and just memorized with at minimum level so that the energy consumption by plant can be efficiently managed. [Table 7] Expression of induced resistance gene in pine tree callus by acibenzolar-S-methyl depending on reaction time
(§4) To have an in vitro assay according to different methods of treatment with acibenzolar-S-methyl, two separate treatment methods, i.e., surface treatment (spraying treatment) of pine tree callus and direct application of the induced resistance material to an LM medium containing pine tree callus, were performed. […]

Xyloglucan = conditions: 200 µg/mℓ; for Expression of induced resistance gene, Xyloglucan: 24 hours
Method: as §1, §2, §3, §4

PR_9 family = conditions: for Expression of induced resistance gene, PR_9 family: 24 hours
Method: as §1, §2, §3, §4

PR_3 family class 1 = conditions: for Expression of induced resistance gene, PR_3 family class 1: 24 hours
Method: as §1, §2, §3, §4

Extensin = conditions: for Expression of induced resistance gene, Extensin: 24 hours
Method: as §1, §2, §3, §4

PR_2 family = conditions: for Expression of induced resistance gene, PR_2 family: 24 hours
Method: as §1, §2, §3, §4

Metallothionein = conditions: for Expression of induced resistance gene, Metallothionein: 24 hours
Method: as §1, §2, §3, §4

Antipeptide = conditions: 200 µg/mℓ, 24 hours
Method: as §1, §2, §3, §4

[1] = 200 µg/mℓ, Direct supplying as a medium component
[2] = concentration series, 200 µg/mℓ
[3] = Direct supplying as a medium component

Q: How did the “Expression of induced resistance gene, PR_5 family” value (PR_5 family; 200 µg/mℓ) turn out when CSC(=O)c1cccc2nnsc12 [ASM, acibenzolar-S-methyl] was run?
A: The value was 2.93.

Q: And the “Expression of induced resistance gene, PR_5 family” value (PR_5 family; [1])?
A: Its value is 5.9.

Q: What about the “Expression of induced resistance gene, PR_5 family” value (PR_5 family; 200 µg/mℓ, Spraying) of the same compound?
A: The value was 2.93.

Q: And the “Gene expression level, PR_5 family” value (PR_5 family; 200 µg/mℓ, After 1 day)?
A: The value was 5.9.

Q: What about the “Gene expression level, PR_5 family” value (PR_5 family; 200 µg/mℓ, After 7 days) of the same compound?
A: Its value is 0.45.

Q: And the “Gene expression level, PR_5 family” value (PR_5 family; 200 µg/mℓ, After 14 days)?
A: Its value is 0.17.

Q: What about the “Gene expression level, PR_5 family” value (PR_5 family; concentration series, 2 µg/mℓ) of the same compound?
A: The value was 4.

Q: And the “Gene expression level, PR_5 family” value (PR_5 family; concentration series, 20 µg/mℓ)?
A: The value was 8.515.

Q: What about the “Gene expression level, PR_5 family” value (PR_5 family; [2]) of the same compound?
A: Its value is 2.809.

Q: And the “Expression of induced resistance gene, Xyloglucan” value (Xyloglucan)?
A: Its value is 2.36.

Q: What about the “Expression of induced resistance gene, Xyloglucan” value (Xyloglucan; [3]) of the same compound?
A: Its value is 17.51.

Q: And the “Expression of induced resistance gene, Xyloglucan” value (Xyloglucan; Spraying)?
A: The value was 2.36.

Q: And the “Gene expression level, Xyloglucan” value (Xyloglucan; After 1 day)?
A: Its value is 29.86.

Q: What about the “Gene expression level, Xyloglucan” value (Xyloglucan; After 7 days) of the same compound?
A: Its value is 2.81.

Q: And the “Gene expression level, Xyloglucan” value (Xyloglucan; After 14 days)?
A: Its value is 1.06.

Q: And the “Gene expression level, Xyloglucan” value (Xyloglucan; concentration series)?
A: Its value is 37.01.

Q: And the “Expression of induced resistance gene, PR_9 family” value (PR_9 family; 200 µg/mℓ)?
A: Its value is 2.

Q: And the “Expression of induced resistance gene, PR_9 family” value (PR_9 family; [1])?
A: The value was 8.57.

Q: And the “Expression of induced resistance gene, PR_9 family” value (PR_9 family; 200 µg/mℓ, Spraying)?
A: Its value is 2.

Q: And the “Gene expression level, PR_9 family” value (PR_9 family; 200 µg/mℓ, After 1 day)?
A: The value was 1.

Q: What about the “Gene expression level, PR_9 family” value (PR_9 family; 200 µg/mℓ, After 7 days) of the same compound?
A: The value was 1.

Q: What about the “Gene expression level, PR_9 family” value (PR_9 family; 200 µg/mℓ, After 14 days) of the same compound?
A: Its value is 1.

Q: And the “Gene expression level, PR_9 family” value (PR_9 family; concentration series, 2 µg/mℓ)?
A: The value was 0.7526.

Q: And the “Gene expression level, PR_9 family” value (PR_9 family; concentration series, 20 µg/mℓ)?
A: The value was 0.79.

Q: And the “Gene expression level, PR_9 family” value (PR_9 family; [2])?
A: Its value is 0.9526.

Q: What about the “Expression of induced resistance gene, PR_3 family class 1” value (PR_3 family class 1; 200 µg/mℓ) of the same compound?
A: Its value is 2.04.

Q: What about the “Expression of induced resistance gene, PR_3 family class 1” value (PR_3 family class 1; [1]) of the same compound?
A: The value was 2.85.

Q: What about the “Expression of induced resistance gene, PR_3 family class 1” value (PR_3 family class 1; 200 µg/mℓ, Spraying) of the same compound?
A: Its value is 2.04.

Q: And the “Gene expression level, PR_3 family class 1” value (PR_3 family class 1; 200 µg/mℓ, After 1 day)?
A: The value was 2.85.

Q: And the “Gene expression level, PR_3 family class 1” value (PR_3 family class 1; 200 µg/mℓ, After 7 days)?
A: The value was 1.38.

Q: What about the “Gene expression level, PR_3 family class 1” value (PR_3 family class 1; 200 µg/mℓ, After 14 days) of the same compound?
A: The value was 0.29.

Q: And the “Gene expression level, PR_3 family class 1” value (PR_3 family class 1; concentration series, 20 µg/mℓ)?
A: The value was 3.506.

Q: What about the “Gene expression level, PR_3 family class 1” value (PR_3 family class 1; [2]) of the same compound?
A: The value was 3.605.

Q: And the “Expression of induced resistance gene, Extensin” value (Extensin; 200 µg/mℓ)?
A: The value was 2.1.

Q: And the “Expression of induced resistance gene, Extensin” value (Extensin; [1])?
A: The value was 2.27.

Q: What about the “Expression of induced resistance gene, Extensin” value (Extensin; 200 µg/mℓ, Spraying) of the same compound?
A: The value was 2.1.

Q: And the “Gene expression level, Extensin” value (Extensin; 200 µg/mℓ, After 1 day)?
A: The value was 9.99.

Q: What about the “Gene expression level, Extensin” value (Extensin; 200 µg/mℓ, After 7 days) of the same compound?
A: Its value is 1.23.

Q: And the “Gene expression level, Extensin” value (Extensin; 200 µg/mℓ, After 14 days)?
A: The value was 0.33.

Q: What about the “Gene expression level, Extensin” value (Extensin; concentration series, 2 µg/mℓ) of the same compound?
A: The value was 0.9012.

Q: What about the “Gene expression level, Extensin” value (Extensin; concentration series, 20 µg/mℓ) of the same compound?
A: The value was 1.385.

Q: What about the “Gene expression level, Extensin” value (Extensin; [2]) of the same compound?
A: Its value is 1.693.

Q: What about the “Expression of induced resistance gene, PR_2 family” value (PR_2 family; 200 µg/mℓ) of the same compound?
A: The value was 1.65.

Q: What about the “Expression of induced resistance gene, PR_2 family” value (PR_2 family; [1]) of the same compound?
A: The value was 5.5.

Q: What about the “Expression of induced resistance gene, PR_2 family” value (PR_2 family; 200 µg/mℓ, Spraying) of the same compound?
A: Its value is 1.65.

Q: And the “Gene expression level, PR_2 family” value (PR_2 family; 200 µg/mℓ, After 1 day)?
A: Its value is 5.5.

Q: What about the “Gene expression level, PR_2 family” value (PR_2 family; 200 µg/mℓ, After 7 days) of the same compound?
A: Its value is 0.97.

Q: And the “Gene expression level, PR_2 family” value (PR_2 family; 200 µg/mℓ, After 14 days)?
A: Its value is 0.42.

Q: And the “Gene expression level, PR_2 family” value (PR_2 family; concentration series, 20 µg/mℓ)?
A: Its value is 2.694.

Q: And the “Gene expression level, PR_2 family” value (PR_2 family; [2])?
A: The value was 1.117.

Q: What about the “Expression of induced resistance gene, Metallothionein” value (Metallothionein; 200 µg/mℓ) of the same compound?
A: Its value is 0.11.

Q: What about the “Expression of induced resistance gene, Metallothionein” value (Metallothionein; [1]) of the same compound?
A: The value was 29.86.

Q: What about the “Expression of induced resistance gene, Metallothionein” value (Metallothionein; 200 µg/mℓ, Spraying) of the same compound?
A: Its value is 0.11.

Q: And the “Gene expression level, Metallothionein” value (Metallothionein; 200 µg/mℓ, After 1 day)?
A: The value was 7.89.

Q: What about the “Gene expression level, Metallothionein” value (Metallothionein; 200 µg/mℓ, After 7 days) of the same compound?
A: Its value is 0.41.

Q: And the “Gene expression level, Metallothionein” value (Metallothionein; 200 µg/mℓ, After 14 days)?
A: The value was 0.29.

Q: What about the “Gene expression level, Metallothionein” value (Metallothionein; concentration series, 2 µg/mℓ) of the same compound?
A: Its value is 0.5946.

Q: What about the “Gene expression level, Metallothionein” value (Metallothionein; concentration series, 20 µg/mℓ) of the same compound?
A: The value was 0.79.

Q: And the “Gene expression level, Metallothionein” value (Metallothionein; [2])?
A: Its value is 0.9266.

Q: What about the “Expression of induced resistance gene, Antipeptide” value (“Expression … Antipeptide” for short) (Antipeptide) of the same compound?
A: Its value is 1.83.

Q: And the “Expression … Antipeptide” value (Antipeptide; [3])?
A: The value was 7.21.

Q: What about the “Expression … Antipeptide” value (Antipeptide; Spraying) of the same compound?
A: Its value is 1.83.
